# “And” between values parts separate entries of the source, which are not always exact repeats. Equal values may be shown once.
# How the values were obtained:
# [1] = Particle size and polydispersity index (PDI) of nanolipid particles, dynamic light scattering; format: physicochemical; details: LNP formulation prepared from the named cationic lipid, 25° C
# Protocol: The particle size and polydispersity index (PDI) were determined by dynamic light scattering method using a Malvern laser particle size analyzer. 10 μL of liposome solution was diluted to 1 mL with RNase-free deionized water and added to a sample pool. Each sample was measured three times. The measurement conditions were: 90° scattering angle, 25° C.
# [2] = Encapsulation rate, drug loading concentration and total RNA concentration detection (RiboGreen); format: physicochemical
# 293T cells [3] = assay: Fluorescence detection of Fluc-mRNA (cell transfection efficiency of LNP formulations); format: cell-based
# Method in brief: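 293T cells at 10,000 per well, adhered overnight, then given LNPs carrying 0.3 μg Fluc-mRNA (cationic:neutral:structured:polymer-conjugated lipid 49:10:39.5:1.5 molar). After 24 h, luciferase signal read with luciferase kit reagents on an IVIS imaging system as transfection efficiency.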
# 293T cells [4] = assay: Cell survival rate assay (CCK-8); format: cell-based
# Method in brief: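 293T cells seeded at 10,000 per well and grown overnight, then exposed for 24 h to LNPs (cationic/neutral/structured/PEG lipids 49:10:39.5:1.5) carrying 1.5 μg Fluc-mRNA, or Lipofectamine 3000. Viability read by CCK-8, 1 h incubation, absorbance at 450 nm.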
# [5] = LNP formulation of the named lipid
structure (smiles),measurement,setting,value
"CCCCCCCCCCCOC(=O)CCCCCN(CCCCCCCC(=O)OC(CCCCCCCC)CCCCCCCC)CCN(C)CCO [YK-201, heptadecan-9-yl-8-(2-((2-hydroxyethyl)(methylamino))ethyl)(6-oxo-6-((undecanyloxy)hexyl)amino)octanoate]",PDI,[1],25.5%
same,Particle size,[1],205 nm
same,"drug loading concentration, times that of ALC-0315",[2],1.55 times
same,"drug loading concentration, times that of HHMA",[2],1.32 times
same,"drug loading concentration, times that of SM-102",[2],1.58 times
same,"drug loading concentration, times that of YK-009",[2],1.50 times
same,"drug loading concentration, times that of compound 21",[2],1.78 times
same,"drug loading concentration, times that of compound 23",[2],1.95 times
same,"total RNA concentration, times that of ALC-0315",[2],1.21 times
same,"total RNA concentration, times that of HHMA",[2],1.19 times
same,"total RNA concentration, times that of SM-102",[2],1.28 times
same,"total RNA concentration, times that of YK-009",[2],1.17 times
same,"total RNA concentration, times that of compound 21",[2],1.47 times and 1.5 times
same,"total RNA concentration, times that of compound 23",[2],1.39 times
same,Drug loading concentration,[2]; [5],40.32 µg/mL
same,Encapsulation rate,[2]; [5],89.5%
same,Total RNA concentration,[2]; [5],45.07 µg/mL
same,encapsulation rate higher than that of ALC-0315,[2]; difference of rates,26.70%
same,encapsulation rate higher than that of HHMA,[2]; difference of rates,29.00%
same,encapsulation rate higher than that of SM-102,[2]; difference of rates,27.20%
same,encapsulation rate higher than that of YK-009,[2]; difference of rates,26.50%
same,encapsulation rate higher than that of compound 21,[2]; difference of rates,31.70%
same,encapsulation rate higher than that of compound 23,[2]; difference of rates,34.30%
same,"RLU / cell transfection efficiency, times that of ALC-0315",293T cells [3]; Fluc-mRNA LNP,13.27 times
same,"RLU / cell transfection efficiency, times that of HHMA",293T cells [3]; Fluc-mRNA LNP,13.56 times
same,"RLU / cell transfection efficiency, times that of Lipofectamine 3000",293T cells [3]; Fluc-mRNA LNP,23.71 times
same,"RLU / cell transfection efficiency, times that of YK-009",293T cells [3]; Fluc-mRNA LNP,5.56 times
same,"RLU / cell transfection efficiency, times that of compound 21",293T cells [3]; Fluc-mRNA LNP,20.04 times
same,"RLU / cell transfection efficiency, times that of compound 23",293T cells [3]; Fluc-mRNA LNP,21.38 times
same,"cell transfection efficiency, times that of YK-223",293T cells [3]; Fluc-mRNA LNP,379.71 times
same,"cell transfection efficiency, times that of YK-224",293T cells [3]; Fluc-mRNA LNP,323.59 times
same,"cell transfection efficiency, times that of YK-226",293T cells [3]; Fluc-mRNA LNP,493.98 times
same,"fluorescence absorption value / cell transfection efficiency, times that of YK-203",293T cells [3]; Fluc-mRNA LNP,7.36 times
same,"fluorescence absorption value / cell transfection efficiency, times that of YK-204",293T cells [3]; Fluc-mRNA LNP,78 times and 78.25 times
same,"fluorescence absorption value / cell transfection efficiency, times that of YK-205",293T cells [3]; Fluc-mRNA LNP,27.68 times
same,"fluorescence absorption value / cell transfection efficiency, times that of YK-208",293T cells [3]; Fluc-mRNA LNP,7.38 times
same,"fluorescence absorption value / cell transfection efficiency, times that of YK-210",293T cells [3]; Fluc-mRNA LNP,6.15 times
same,"fluorescence absorption value / cell transfection efficiency, times that of YK-211",293T cells [3]; Fluc-mRNA LNP,20.79 times
same,"fluorescence absorption value / cell transfection efficiency, times that of YK-212",293T cells [3]; Fluc-mRNA LNP,7.28 times
same,"fluorescence absorption value / cell transfection efficiency, times that of YK-213",293T cells [3]; Fluc-mRNA LNP,20.87 times
same,"fluorescence absorption value / cell transfection efficiency, times that of YK-214",293T cells [3]; Fluc-mRNA LNP,6.22 times
same,"fluorescence absorption value / cell transfection efficiency, times that of YK-215",293T cells [3]; Fluc-mRNA LNP,29.03 times
same,"fluorescence absorption value / cell transfection efficiency, times that of YK-216",293T cells [3]; Fluc-mRNA LNP,12.49 times
same,"fluorescence absorption value / cell transfection efficiency, times that of YK-217",293T cells [3]; Fluc-mRNA LNP,396.42 times
same,"fluorescence absorption value / cell transfection efficiency, times that of YK-218",293T cells [3]; Fluc-mRNA LNP,46.92 times
same,"fluorescence absorption value / cell transfection efficiency, times that of YK-219",293T cells [3]; Fluc-mRNA LNP,18.91 times
same,"fluorescence absorption value / cell transfection efficiency, times that of YK-220",293T cells [3]; Fluc-mRNA LNP,131.62 times
same,"fluorescence absorption value, times that of YK-222",293T cells [3]; Fluc-mRNA LNP,46.97 times
same,Relative light unit (RLU),"293T cells [3]; LNP containing 0.3 μg Fluc-mRNA, 24 hours",28482617 RLU
same,Multiples of values that equivalent to YK-201,293T cells [3]; RLU of YK-201 / RLU of the named lipid,1.00
same,Multiples of values that equivalent to YK-202,293T cells [3]; RLU of YK-202 / RLU of the named lipid,1.05
same,Ratio relative to SM-102,"293T cells [3]; RLU of the named lipid / RLU of SM-102, times that of SM-102",17.10
same,Cell survival rate,"293T cells [4]; LNP containing 1.5 μg Fluc-mRNA, 24 hours, CCK-8",75.93%
same,cell survival rate higher (cytotoxicity reduced) compared with YK-221,293T cells [4]; difference of rates,55% and 54.98%
same,cell survival rate higher (toxicity lower) than that of YK-204,293T cells [4]; difference of rates,30% and 33.36%
same,cell survival rate higher (toxicity lower) than that of YK-225,293T cells [4]; difference of rates,32.52%
same,cell survival rate higher than that of ALC-0315,293T cells [4]; difference of rates,25.97%
same,cell survival rate higher than that of HHMA,293T cells [4]; difference of rates,10.37%
same,cell survival rate higher than that of Lipofectamine 3000,293T cells [4]; difference of rates,52.88%
same,cell survival rate higher than that of SM-102,293T cells [4]; difference of rates,7.38%
same,cell survival rate higher than that of YK-203,293T cells [4]; difference of rates,40.37%
same,cell survival rate higher than that of YK-205,293T cells [4]; difference of rates,17.01%
same,cell survival rate higher than that of YK-208,293T cells [4]; difference of rates,29.25%
same,cell survival rate higher than that of YK-210,293T cells [4]; difference of rates,37.55%
same,cell survival rate higher than that of YK-211,293T cells [4]; difference of rates,23.63%
same,cell survival rate higher than that of YK-212,293T cells [4]; difference of rates,40.67%
same,cell survival rate higher than that of YK-213,293T cells [4]; difference of rates,34.49%
same,cell survival rate higher than that of YK-214,293T cells [4]; difference of rates,50.35% and 50%
same,cell survival rate higher than that of YK-215,293T cells [4]; difference of rates,31.34%
same,cell survival rate higher than that of YK-216,293T cells [4]; difference of rates,30.13%
same,cell survival rate higher than that of YK-217,293T cells [4]; difference of rates,33.66%
same,cell survival rate higher than that of YK-219,293T cells [4]; difference of rates,17.32%
same,cell survival rate higher than that of YK-220,293T cells [4]; difference of rates,16.94%
same,cell survival rate higher than that of YK-222,293T cells [4]; difference of rates,42.18%
same,cell survival rate higher than that of YK-223,293T cells [4]; difference of rates,39.29%
same,cell survival rate higher than that of YK-224,293T cells [4]; difference of rates,52.46%
same,cell survival rate higher than that of YK-226,293T cells [4]; difference of rates,48.03%
same,cell survival rate higher than that of compound 21,293T cells [4]; difference of rates,6.91%
same,cell survival rate higher than that of compound 23,293T cells [4]; difference of rates,5.83%
